Measured values taken from patent US20250236608A1, “EGFR INHIBITORS” (Blueprint Medicines Corporation, priority 2022, published 2025).
Where a name gives a salt, the structure may show the parent alone.

Key:
[1] = biological target: pEGFR (Tyr1068) in PC-9 cells (Ex19Del) (Homo sapiens (Human), UniProt P00533, DEL746-750); test: PC-9 pEGFR AlphaLISA assay; format: cell-based; conditions: 4 hours incubation, p-EGFR (Tyr1068) AlphaLISA, read-out: Ext pEGFR_PC-9 Ex19Del IC50
Description: PC-9/A431 pEGFR AlphaLISA Assays
Inhibitory effects of compounds were evaluated in cellular assays that measure level of intracellular phosphorylation of EGFR in PC-9 (ECACC, #90071810, Milipore/Sigma) and A431 cell lines (ATCC, CRL-1555) using AlphaLISA sureFire ultra p-EGFR (Tyr1068) assay kit (PerkinElmer, ALSU-PEGFR-A50K). PC-9 cells were seeded at 3.125×10^5 cells/ml in 40 μL phenol-free DMEM supplemented with 10% FBS per well of a 384 well plate (Corning, 3764), while A431 were seeded at 3.125×10^5 cells/ml in 40 μL in phenol-free DMEM with 0.5% FBS. Cells were allowed to adhere overnight at 37° C./5% CO2. On the next day, compounds were transferred at 4-fold, 10-point serial dilution from compound source plate to cell plates using liquid handler Echo550 and were incubated at 37° C./5% CO2 for 4 hours. A431 cells were stimulated prior harvesting for 10 min with EGF at final concentration of 30 ng/ml in the incubator. Medium was removed from the plates and cells were lysed with 10 μL of 1× AlphaLISA lysis buffer (supplemented with 1× protease/phosphatase inhibitor cocktail) followed by shaking at 600 rpm for 30 minutes at room temperature. Lysates were transferred to Optiplate (Apricot designs) and 5 μl of 1× acceptor bead mix (prepared just before use) was added to each well followed by incubation at room temperature for 1.5-2 h in dark. Then 5 μL of freshly-made donor bead mix is added to each well under subdued lighting or green filters, was mixed well on the shaker and the plate was sealed and left for an overnight incubation at room temperature in dark. On the next day, the plate was read the Envision using standard AlphaLisa settings. Percent of pEGFR inhibition was plotted against log concentration of compounds to generate IC50 values.

EGFR (d746-750) = EGFR (d746-750) (Homo sapiens (Human), UniProt P00533, DEL746-750); test: Biochemical EGFR inhibition assay, EGFR (d746-750); conditions: Caliper mobility shift; 1.0 mM ATP or ATP Km; read-out: Enz EGFR_Exon19-del746-750 IC50
Description: (§1) Reactions proceeded until between 10% to 20% total peptides were phosphorylated at room temperature (25° C.) and were terminated with 35 mM 2,2′,2″,2″-(ethane-1,2-diyldinitrilo)tetraacetic acid (EDTA). Product was detected using the Caliper mobility shift detection method where the phosphorylated peptide (product) and substrate were electrophoretically separated and measured. Percent activity was plotted against log concentration of compound and points to generate an apparent IC50.

EGFR L858R = EGFR L858R (Homo sapiens (Human), UniProt P00533, L858R); test: Biochemical EGFR inhibition assay, EGFR L858R; conditions: Caliper mobility shift; 1.0 mM ATP or ATP Km; read-out: Enz EGFR_L858R IC50
Description: as §1

| Compound | IC50 [1] [nM] | IC50 (EGFR (d746-750)) [nM] | IC50 (EGFR L858R) [nM] |
| --- | --- | --- | --- |
| COc1cc2ncnc(-c3cn(C)nc3-c3ccccc3)c2cc1NC(=O)c1cnc(C2CC2)s1 [Example 209, 2-cyclopropyl-N-(7-methoxy-4-(1-methyl-3-phenyl-1H-pyrazol-4-yl)quinazolin-6-yl)thiazole-5-carboxamide] | 0.9 | 0.8 | 1.5 |
| COc1cc2ncnc(-c3cn(C)nc3-c3ccccc3)c2cc1OC(=O)N1[C@H](C)CNC[C@@H]1C [Example 87, 7-methoxy-4-(1-methyl-3-phenyl-1H-pyrazol-4-yl)quinazolin-6-yl (2R,6S)-2,6-dimethylpiperazine-1-carboxylate] | 5.7 | 2.1 | 4.9 |
| COc1cc2ncnc(-c3cn(C)nc3-c3ccccc3)c2cc1NC(=O)N1C[C@@H](C)OC[C@@H]1C [Example 183, (2R,5S)-N-(7-methoxy-4-(1-methyl-3-phenyl-1H-pyrazol-4-yl)quinazolin-6-yl)-2,5-dimethylmorpholine-4-carboxamide] | 10.7 | 3.6 | 8 |
| COc1cc2ncnc(-c3cn(C)nc3-c3ccccc3)c2cc1-c1cc2c[nH]nc2cc1C [Example 147, 7-methoxy-6-(6-methyl-2H-indazol-5-yl)-4-(1-methyl-3-phenyl-1H-pyrazol-4-yl)quinazoline] |  |  | 13.7 |
| COc1cc2ncnc(-c3cn(C)nc3-c3ccccc3)c2cc1-c1ccnc(N2CCNCC2)c1 [Example 139, 7-methoxy-4-(1-methyl-3-phenyl-1H-pyrazol-4-yl)-6-(2-(piperazin-1-yl)pyridin-4-yl)quinazoline formate] | 5.1 |  |  |
| 7-ethoxy-6-(2-methyl-2H-indazol-4-yl)-4-(1-methyl-3-phenyl-1H-pyrazol-4-yl)pyrido[3,2-d]pyrimidine [Example 156] | 2.4 |  | 3.2 |
| COc1cc2ncnc(-c3cn(C)nc3-c3ccccc3)c2cc1-c1cc2c[nH]nc2cc1C [Example 146, 7-methoxy-6-(6-methyl-2H-indazol-5-yl)-4-(1-methyl-3-phenyl-1H-pyrazol-4-yl)quinazoline] |  |  | 8.2 |
| COc1cc2ncnc(-c3cn(C)nc3-c3ccccc3)c2cc1NC(=O)C1CCN1C (stereo not drawn) [Example 251, N-(7-methoxy-4-(1-methyl-3-phenyl-1H-pyrazol-4-yl)quinazolin-6-yl)-1-methylazetidine-2-carboxamide] | 3.5 |  |  |
| COc1cc2ncnc(-c3cn(C)nc3-c3ccccc3)c2cc1-c1ccc2n[nH]cc2c1C [Example 145, 7-methoxy-6-(4-methyl-2H-indazol-5-yl)-4-(1-methyl-3-phenyl-1H-pyrazol-4-yl)quinazoline] | 5.9 |  |  |
| COc1cc2ncnc(-c3cn(C)nc3-c3ccccc3)c2cc1-c1ccc2c(=O)[nH]ccc2c1 [Example 144, 6-(7-methoxy-4-(1-methyl-3-phenyl-1H-pyrazol-4-yl)quinazolin-6-yl)isoquinolin-1(2H)-one] | 8.3 |  |  |

Results, then the compound that gave them:

| IC50 [1] [nM] | IC50 (EGFR (d746-750)) [nM] | IC50 (EGFR L858R) [nM] | Compound |
| --- | --- | --- | --- |
| 2 | 1.2 | 1.9 | CCn1cc(-c2ncnc3cc(OC)c(NC(=O)[C@@]45COC[C@@H]4C5)cc23)c(-c2ccccc2)n1 [Example 288, (1R,5R)—N-(4-(1-ethyl-3-phenyl-1H-pyrazol-4-yl)-7-methoxyquinazolin-6-yl)-3-oxabicyclo[3.1.0]hexane-1-carboxamide] |
| 2.5 | 0.8 | 2.1 | COc1cc2ncnc(-c3cn(C)nc3-c3ccccc3F)c2cc1NC(=O)[C@@]12C[C@@H]1CN(C)C2 (single isomer, unassigned) [Example 254, (1S,5S)—N-(4-(3-(2-fluorophenyl)-1-methyl-1H-pyrazol-4-yl)-7-methoxyquinazolin-6-yl)-3-methyl-3-azabicyclo[3.1.0]hexane-1-carboxamide or (1R,5R)—N-(4-(3-(2-fluorophenyl)-1-methyl-1H-pyrazol-4-yl)-7-methoxyquinazolin-6-yl)-3-methyl-3-azabicyclo[3.1.0]hexane-1-carboxamide] |
| 0.8 | 1 | 1.7 | COc1cc2ncnc(-c3cn(C)nc3-c3ccccc3)c2nc1NC(=O)C1CC1 [Example 355, N-(7-methoxy-4-(1-methyl-3-phenyl-1H-pyrazol-4-yl)pyrido[3,2-d]pyrimidin-6-yl)cyclopropanecarboxamide] |
| 6.7 |  | 26 | COc1cc2ncnc(-c3cn(C)nc3-c3c(F)cccc3F)c2nc1NC(=O)[C@@]12C[C@@H]1CN(C)C2 (single isomer, unassigned) [Example 412, (1S,5S)—N-(4-(3-(2,6-difluorophenyl)-1-methyl-1H-pyrazol-4-yl)-7-methoxypyrido[3,2-d]pyrimidin-6-yl)-3-methyl-3-azabicyclo[3.1.0]hexane-1-carboxamide or (1R,5R)—N-(4-(3-(2,6-difluorophenyl)-1-methyl-1H-pyrazol-4-yl)-7-methoxypyrido[3,2-d]pyrimidin-6-yl)-3-methyl-3-azabicyclo[3.1.0]hexane-1-carboxamide] |
|  | 1.3 | 5.4 | CN1CC[C@@H](Oc2cc3c(-c4cn(C)nc4-c4ccccc4)ncnc3cc2OC2CC2)[C@H](F)C1 [Example 476, 7-cyclopropoxy-6-(((3R,4R)-3-fluoro-1-methylpiperidin-4-yl)oxy)-4-(1-methyl-3-phenyl-1H-pyrazol-4-yl)quinazoline] |
| 1.1 |  | 0.9 | Cn1cc(-c2ccc3c(-c4c[nH]nc4-c4cccc(Cl)c4)ncnc3c2)cn1 [Example 440, 4-(3-(3-chlorophenyl)-1H-pyrazol-4-yl)-7-(1-methyl-1H-pyrazol-4-yl)quinazoline] |
| 5.9 |  |  | COc1cc2ncnc(-c3cn(C)nc3-c3ccccc3)c2cc1NC(=O)[C@]12C[C@H]1CN(C)C2 [Example 337, (1R,5R)—N-(7-methoxy-4-(1-methyl-3-phenyl-1H-pyrazol-4-yl)quinazolin-6-yl)-3-methyl-3-azabicyclo[3.1.0]hexane-1-carboxamide] |
| 23.2 |  | 10 | COc1cc2ncnc(-c3cn(C)nc3-c3c(F)cccc3F)c2nc1NC(=O)[C@]12C[C@H]1CN(C)C2 (single isomer, unassigned) [Example 413, (1R,5R)—N-(4-(3-(2,6-difluorophenyl)-1-methyl-1H-pyrazol-4-yl)-7-methoxypyrido[3,2-d]pyrimidin-6-yl)-3-methyl-3-azabicyclo[3.1.0]hexane-1-carboxamide or (1S,5S)—N-(4-(3-(2,6-difluorophenyl)-1-methyl-1H-pyrazol-4-yl)-7-methoxypyrido[3,2-d]pyrimidin-6-yl)-3-methyl-3-azabicyclo[3.1.0]hexane-1-carboxamide] |
| 3.2 |  |  | COc1cc2ncnc(-c3cn(C)nc3-c3ccccc3)c2cc1NC(=O)[C@@H]1CCN1C (single isomer, unassigned) [Example 252, (S)—N-(7-methoxy-4-(1-methyl-3-phenyl-1H-pyrazol-4-yl)quinazolin-6-yl)-1-methylazetidine-2-carboxamide or (R)—N-(7-methoxy-4-(1-methyl-3-phenyl-1H-pyrazol-4-yl)quinazolin-6-yl)-1-methylazetidine-2-carboxamide] |
| 4 |  |  | COc1cc2ncnc(-c3cn(C)nc3-c3ccccc3)c2cc1NC(=O)[C@@]12C[C@@H]1CN(C)C2 [Example 336, (1S,5S)—N-(7-methoxy-4-(1-methyl-3-phenyl-1H-pyrazol-4-yl)quinazolin-6-yl)-3-methyl-3-azabicyclo[3.1.0]hexane-1-carboxamide] |
| 4.5 |  |  | COc1cc2ncnc(-c3cn(C)nc3-c3ccccc3)c2cc1NC(=O)C12C3C4C1C1C2C3C41NC(=O)OC(C)(C)C (stereo not drawn) [Example 343, tert-butyl (4-((7-methoxy-4-(1-methyl-3-phenyl-1H-pyrazol-4-yl)quinazolin-6-yl)carbamoyl)cuban-1-yl)carbamate] |
| 6.5 |  |  | CCC(=O)Nc1cc2c(-c3cn(C)nc3-c3ccccc3)ncnc2cc1-c1ccncn1 [Example 448, N-(4-(1-methyl-3-phenyl-1H-pyrazol-4-yl)-7-(pyrimidin-4-yl)quinazolin-6-yl)propionamide] |
